Values of other authors as cited in patent US20040224037A1, “Devastating treatment against hiv/aids with capsaicin” (priority 2003, published 2004).
Read-outs that look alike come from different tables or passages of the source.

Experiments:
[1] = tested on: proliferating macrophages from the blood of four patients with AIDS dementia
tongue = conditions: Nelson 1910
substance p(sp) = conditions: pretreatment with Capsaicin in rats
b-endorphin = conditions: rats; 3,5,7 and 15 days after Capsaicin administration
[2] = tested on: histamine and 5-hydroxitryptamine; conditions: treatment with Capsaicin in rats
macrophages = conditions: in vitro
herpes simplex = conditions: sc. administration, rats infected with herpes simplex
[3] = tested on: [4-(methylnitrosamino)-1-(3-pyridyl)-1-butanone] nnk
rats [4] = conditions: higher doses reduced acid output
[5] = tested on: intestinal glucose absorption; conditions: 140 mcg/ml, rats in vitro
[6] = Capsaicin administration at high concentration
[7] = tested on: enzyme (cyp2e1) of cytochrome p4502e1; conditions: in the liver
Sequence of enzyme (cyp2e1) of cytochrome p4502e1 (P05181 whole entry, species assumed): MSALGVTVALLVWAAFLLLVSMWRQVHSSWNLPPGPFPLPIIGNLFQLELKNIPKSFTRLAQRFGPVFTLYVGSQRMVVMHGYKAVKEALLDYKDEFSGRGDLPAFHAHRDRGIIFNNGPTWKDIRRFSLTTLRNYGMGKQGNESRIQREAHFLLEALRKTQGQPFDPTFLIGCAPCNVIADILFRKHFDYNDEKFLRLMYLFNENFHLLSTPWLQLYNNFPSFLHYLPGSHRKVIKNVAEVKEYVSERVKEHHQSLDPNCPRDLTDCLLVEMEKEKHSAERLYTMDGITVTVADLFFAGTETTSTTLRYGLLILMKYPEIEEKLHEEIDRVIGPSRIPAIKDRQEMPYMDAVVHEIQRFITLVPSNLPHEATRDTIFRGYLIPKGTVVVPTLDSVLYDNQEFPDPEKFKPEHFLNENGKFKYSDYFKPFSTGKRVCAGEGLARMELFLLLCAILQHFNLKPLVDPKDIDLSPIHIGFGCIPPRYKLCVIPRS

cats and dogs = conditions: 50 mcg/kg iv. in cats and dogs
dogs [8] = conditions: 10 mcg/kg iv. in dogs
rats [9] = conditions: for blood pressure and heart rate after pretreatment: previous anesthesia, Capsaicin pretreatment 100 mg during four days
rats [10] = conditions: 18 mcg/kg injected, anesthesia, pretreatment 4,8,16 and 200 mg/kg each 12 hours
dogs [11] = tested on: dogs
rats [12] = conditions: iv. treatment, also printed 0.5 mg/kg
nk cells = conditions: deviation of more or less 11.5%
masT cells = conditions: suspensions of mast cells in rats
Sprague-Dawley cd rats = conditions: pregnant rats, 0, 500 or 5000 mg/kg/day

For CCNCCCNC[C@@H]1CC[C@H]1CNCCCNCC.Cl.Cl.Cl.Cl (relative stereo) [SL-11038, N-ethyl-N′-(2-(3′-ethylamino-propylaminomethyl)-trans-cyclobutylmethyl)-propane 1,3-diamine tetrahydrochloride], the “effect on proliferating macrophages” value [1] is listed as “potent effect of inhibition”.
In the case of CCNCCCNC[C@@H]1C[C@H]1CNCCCNCC.Cl.Cl.Cl.Cl (relative stereo) [SL-11044, N-ethyl-N′-(2-(3′-ethylamino-propylaminomethyl)-trans-cyclopropylmethyl)-propane 1,3-diamine tetrahydrochloride], the “effect on proliferating macrophages” value [1] is listed as “potent effect of inhibition”.
In the case of CCNCCCCNCCCCNCCCCNCCCCNCC [BE-4444, 1,19-bis(ethylamino)-5,10,15-triazanonadecane], the “effect on proliferating macrophages” value [1] is given as “potent effect of inhibition”.
For COc1cc(CNC(=O)CCCC/C=C/C(C)C)ccc1O [Capsaicin, 8-methyl-n-vanillyl-6-nonenamide], the “concentration giving perceptible warmth on tongue” value (tongue; 1 ppm) is given as 1 µg/mL, the “concentration giving persistent burning on tongue” value (tongue; 10 ppm) is given as 10 µg/mL and the “effect upon the substance p(sp) at intestinal level” value (substance p(sp)) is given as “did not have effect”. For the same compound, the “b-endorphin concentration in the hypothalamus” value (b-endorphin) was “decreased”, the “histamine and 5-hydroxitryptamine” value [2] was “increment” and the “production of anions superoxides, peroxide of hydrogen and nitrites by macrophages” value (macrophages; 10 mcm) was “completely inhibited”. The “effect on growth / activity” value (Bacillus cereus) was “did not show activity”, the “effect on growth / activity” value (Clostridium sporogenes) was “did not show activity” and the “effect on growth / activity” value (Bacillus subtilis) was “did not show activity”. The “effect on growth / activity” value (Streptococcus pyogenes) was “did not show activity”, the activity (Candida albicans) was “did not show activity” and the activity (Salmonella typhimurium) was “did not show activity”. For the same compound, the activity (Staphylococcus aureus) was “did not show activity”, the activity (Escherichia coli) was “did not show activity” and the mortality (herpes simplex) was “reduced mortality”. For the same compound, the “effect on tobacco specific carcinogen nnk” value [3] was “inhibited”, the “growth (cancer)” value (cancer) was “inhibit growth at low concentration” and the “time for area of hyperalgesia to reach a maximum” value (humans; 10 mcg intradermal) was at most 5 min. The “time to disappearance of hyperalgesia” value (humans; 10 mcg intradermal) was at most 15 min, the “time for area of hyperalgesia to reach a maximum” value (humans; 100 mcg intradermal) was at most 7 min and the “time to disappearance of hyperalgesia” value (humans; 100 mcg intradermal) was at most 137 min. The “dose at which acid secretory response reached a maximum” value (rats [4]) was 1 mg/kg, the intestinal glucose absorption [5] was “inhibitory effect” and the “time after which recovery of the desensitization is not complete” value [6] was over 60 days. The “activity of enzyme cyp2e1” value [7] was “capable to inhibit”, the “GLINSUKON EXP (LD50)” value (mice; ig. adm, mice) was 67 mg/kg and the “GLINSUKON EXP (LD50), value in brackets” value (mice; ig. adm, mice, second value in brackets) was 190 mg/kg. The “GLINSUKON EXP (LD50)” value (mice; iv. adm, mice) was 0.5 mg/kg, the LD50 (mice; iv., male mice) was 0.56 mg/kg and the “GLINSUKON EXP (LD50)” value (mice; sc. adm, mice) was 8.5 mg/kg. For the same compound, the “toxicity effect measured by LD50 compared between routes” value (mice; sc., im., and intraperitoneal (ip.), mice) was “similar”, the “effect of iv. dose” value (cats; 200 mcg/kg iv. in cats) was “bradycardia, apnea” and the tension reduction (cats; 200 mcg/kg iv. in cats) was 46 mmhg. For the same compound, the “effect of iv. dose” value (cats; 400 mcg/kg iv. in cats) was “higher post-hypotension and a second period of apnea”, the blood pressure (cats and dogs) was “fast fallen in blood pressure” and the “drop of the pulse, first value” (cats and dogs) was 108 min⁻¹. For the same compound, the “drop of the pulse, second value” (cats and dogs) was 24 min⁻¹, the subsequent tachycardia (cats and dogs) was 160 min⁻¹ and the “effect of iv. dose” value (dogs [8]) was “apnea, bradycardia, hypotension”. The “blood pressure and heart rate after pretreatment” value (rats [9]; 1 mcg injected, rats) was “normal blood pressure and rate of the heart”, the “effect of iv. dose on blood pressure and heart rate” value (rats [9]; 1 mcg or 3 mcg/kg iv. in rats) was “reproduced three phases” and the “blood pressure and heart rate after pretreatment” value (rats [9]; 50 mcg slow infusion over 12 mins) was “normal blood pressure and rate of the heart”. For the same compound, the “Bezold-Jarisch reflex after pretreatment” value (rats [10]) was “significant inhibition of the Bezold-Jarisch reflex”, the respiratory effect (dogs [11]; administration rate 10-20 mcg/kg/min, dogs) was “fast superficial respiration, but without apnea” and the respiratory effect (dogs [11]; injected 0.5-20 mcg/kg, dogs anesthetised with chloralose) was “apnea, followed by a fast superficial respiration”. For the same compound, the letal dose (rats [12]) was 0.5 mg/kg.
In the case of CCNCCCNCCCNCCCNCC [Denop, diethylnospermine], the “effect on proliferating macrophages” value [1] is listed as “potent effect of inhibition”.
In the case of CCNCCCNC[C@@H]1C[C@@H]1CNCCCNCC.Cl.Cl.Cl.Cl [SL-11037, n-ethyl-n′-(2-(3′-ethylamino-propylaminomethyl)-cis-cyclopropylmethyl)-propane 1,3-diamine tetrahydrochloride], the “effect on proliferating macrophages” value [1] is listed as “potent effect of inhibition”.
For CCNCCCNC/C=C\CNCCCNCC.Cl.Cl.Cl.Cl [SL-11047, N′-bis (3-ethylaminopropyl)-cis-but-2-ene-1,4-diamine tetrahydrochloride], the “effect on proliferating macrophages” value [1] is listed as “potent effect of inhibition”.
In the case of CCNCCCNC/C=C/CNCCCNCC [SL-11048], the “effect on proliferating macrophages” value [1] is given as “potent effect of inhibition”.
For CN1[C@@H]2CC[C@H]1C[C@@H](OC(=O)C(CO)c1ccccc1)C2 (some centres unmarked) [atropine], the “counteraction of the effect of Capsaicin” value (rats [9]; rat, in vivo) is given as “able to counteract the effect of Capsaicin”.
For COc1cc(CNC(=O)CCCCCCC(C)C)ccc1O [dihydroCapsaicin, 8-methylnonanoic acid vanillylamide], the “effect on growth / activity” value (Bacillus cereus) is given as “did not show activity”, the “effect on growth / activity” value (Clostridium sporogenes) is given as “did not show activity” and the “effect on growth / activity” value (Bacillus subtilis) is given as “did not show activity”. The “effect on growth / activity” value (Streptococcus pyogenes) was “did not show activity”, the activity (Candida albicans) was “did not show activity” and the activity (Salmonella typhimurium) was “did not show activity”. For the same compound, the activity (Staphylococcus aureus) was “did not show activity” and the activity (Escherichia coli) was “did not show activity”.
In the case of CCO [ethanol], the blood alcohol concentration (human; 0.5 fluid ounces (about 15 ml) in a 150 pound human) is listed as 0.02%, the “blood alcohol concentration that starts to produce measurable mental impairment” value (human; in vivo) is listed as 0.05% and the “fraction processed by the liver” value (human; in vivo) is listed as “over 90%”.
For C=CCc1ccc(O)c(OC)c1 [eugenol], the “concentration required to completely inhibit reactive oxygen species, compared with Capsaicin” value (macrophages) is listed as “Higher concentrations”.
In the case of “b-endorphin: group of protein with potent analgesic properties that occur naturally in the brain (YGGFMTSEKSQTPLVTLFKNAIIKNAYKKGE; Beta-endorphin; UniProt P01189 237-267, looked up)”, the “proliferative response of lymphocytes” value (lymphocytes) is listed as “increases” and the “increase of activity of nk cells” value (nk cells) is listed as 30.5%.
In the case of “kallidin: neuropeptide provoking histamine release (KRPPGFSPFR; Lysyl-bradykinin; UniProt P01042 380-389, looked up)”, the “power in provoking histamine release, compared with substance p and polisteskinin” value (masT cells) is given as “Less powerful”.
For methionyl-lysyl-bradykinin, the “power in provoking histamine release, compared with substance p and polisteskinin” value (masT cells) is listed as “Less powerful”.
For “polyoxyethylene sorbitan monooleate [tw80]”, the signs of toxicity (Sprague-Dawley cd rats) is given as “no dose-related signs of toxicity”.
